Laboratory results: BigSolDB 2.1

Cn1nccc1O
solubility (mole fraction)
Conditions	278.15 K	283.15 K	288.15 K	293.15 K	298.15 K	303.15 K	308.15 K	313.15 K	318.15 K
in ethanol	0.0822	0.0959	0.112	0.129	0.149	0.171	0.194	0.216	0.247
in ethyl acetate	0.000394	0.000668	0.00119	0.00222	0.00348	0.00603	0.00922	0.0154	0.0245
in isobutanol	0.1	0.118	0.138	0.161	0.183	0.208	0.242	0.272	0.308
in isopropanol	0.079	0.0911	0.106	0.122	0.141	0.162	0.186	0.209	0.24
in methanol	0.0905	0.107	0.126	0.146	0.172	0.201	0.234	0.266	0.308
in methyl acetate	0.00741	0.00888	0.0109	0.0128	0.0156	0.0187	0.0217	0.0258	0.0312
in n-butanol	0.0789	0.09	0.105	0.121	0.139	0.159	0.177	0.2	0.231
in n-butyl acetate	0.000681	0.00102	0.00149	0.00216	0.00302	0.00433	0.00601	0.00846	0.0125
in n-pentyl acetate	0.00428	0.00553	0.00705	0.0087	0.011	0.0138	0.0169	0.0201	0.0261
in n-propanol	0.0801	0.0922	0.109	0.127	0.143	0.165	0.185	0.211	0.245
in n-propyl acetate	0.000277	0.0005	0.000774	0.00138	0.00218	0.0032	0.00511	0.00843	0.0124
in sec-butanol	0.0889	0.101	0.117	0.135	0.154	0.173	0.195	0.219	0.251
